According to patent publication US9744222B2, “Peptide for vaccine” (Circassia Limited, priority 2007, dated 2017):
Where a SMILES comes first, the peptide text is derived from it.

Assay: Solubility pre-screen of peptides
Details: pre-screened for solubility in an aqueous, acidic milieu; YES/NO
Protocol: Methods The assay employed is a competitive MHC class II binding assay, wherein each peptide is analysed for its ability to displace a known control binder from each of the human MHC class II allotypes investigated.
Also shown is the solubility status of the peptide at the highest concentrations in the aqueous solution of the binding assay. The value illustrates the lowest concentration at which an insoluble white precipitate is seen.

Compound	Solubility test
CC(C)C[C@H](NC(=O)[C@H](CCC(N)=O)NC(=O)[C@H](Cc1ccccc1)NC(=O)[C@@H]1CCCN1C(=O)[C@@H](N)CCCCN)C(=O)N[C@@H](CCC(=O)O)C(=O)N[C@@H](C)C(=O)N[C@H](C(=O)N[C@@H](Cc1ccccc1)C(=O)N[C@@H](CCC(=O)O)C(=O)N[C@@H](C)C(=O)N[C@@H](CC(N)=O)C(=O)N[C@@H](CCC(N)=O)C(=O)N[C@@H](CC(N)=O)C(=O)N[C@H](C(=O)N[C@@H](CCCCN)C(=O)O)[C@@H](C)O)C(C)C [HDM21A] (H-KPFQLEAVFEANQNTK-OH; N-terminus and C-terminus assumed)	YES
CC(C)C[C@H](NC(=O)[C@H](CCC(N)=O)NC(=O)[C@H](Cc1ccccc1)NC(=O)[C@@H]1CCCN1C(=O)[C@H](CCCCN)NC(=O)CNC(=O)[C@@H](N)CCCNC(=N)N)C(=O)N[C@@H](CCC(=O)O)C(=O)N[C@@H](C)C(=O)N[C@H](C(=O)N[C@@H](Cc1ccccc1)C(=O)N[C@@H](CCC(=O)O)C(=O)N[C@@H](C)C(=O)N[C@@H](CC(N)=O)C(=O)N[C@@H](CCC(N)=O)C(=O)N[C@@H](CC(N)=O)C(=O)N[C@H](C(=O)O)[C@@H](C)O)C(C)C [HDM21B] (H-RGKPFQLEAVFEANQNT-OH; N-terminus and C-terminus assumed)	YES
CC(C)C[C@H](NC(=O)[C@H](CCC(N)=O)NC(=O)[C@H](Cc1ccccc1)NC(=O)[C@@H]1CCCN1C(=O)[C@@H](N)CCCCN)C(=O)N[C@@H](CCC(=O)O)C(=O)N[C@@H](C)C(=O)N[C@H](C(=O)N[C@@H](Cc1ccccc1)C(=O)N[C@@H](CCC(=O)O)C(=O)N[C@@H](C)C(=O)N[C@@H](CC(N)=O)C(=O)N[C@@H](CCC(N)=O)C(=O)N[C@@H](CC(N)=O)C(=O)N[C@H](C(=O)O)[C@@H](C)O)C(C)C [HDM21] (H-KPFQLEAVFEANQNT-OH; N-terminus and C-terminus assumed)	YES
CC(C)[C@H](NC(=O)[C@H](C)NC(=O)[C@@H](N)CCC(=O)O)C(=O)N[C@@H](Cc1ccccc1)C(=O)N[C@@H](CCC(=O)O)C(=O)N[C@@H](C)C(=O)N[C@@H](CC(N)=O)C(=O)N[C@@H](CCC(N)=O)C(=O)N[C@@H](CC(N)=O)C(=O)N[C@H](C(=O)N[C@@H](CCCCN)C(=O)N[C@H](C(=O)N[C@@H](C)C(=O)N[C@@H](CCCCN)C(=O)O)[C@@H](C)O)[C@@H](C)O [HDM22A] (H-EAVFEANQNTKTAK-OH; N-terminus and C-terminus assumed)	YES
CC[C@H](C)[C@H](NC(=O)[C@H](CCC(=O)O)NC(=O)[C@@H](NC(=O)[C@H](CCCCN)NC(=O)[C@H](C)N)[C@@H](C)CC)C(=O)N[C@@H](CCCCN)C(=O)N[C@@H](C)C(=O)N[C@@H](CO)C(=O)N[C@@H](CC(C)C)C(=O)N[C@@H](CC(=O)O)C(=O)NCC(=O)N[C@@H](CC(C)C)C(=O)N[C@@H](CCC(=O)O)C(=O)O [HDM27] (H-AKIEIKASLDGLE-OH; N-terminus and C-terminus assumed)	YES
CC[C@H](C)[C@H](NC(=O)[C@H](C)NC(=O)[C@H](C)NC(=O)[C@@H](NC(=O)[C@H](C)NC(=O)[C@H](CCC(=O)O)NC(=O)[C@H](CC(=O)O)NC(=O)[C@@H](NC(=O)[C@H](C)NC(=O)[C@@H](N)CCCCN)C(C)C)C(C)C)C(=O)N[C@@H](CCC(=O)O)C(=O)N[C@@H](CCCCN)C(=O)N[C@@H](CO)C(=O)O [HDM28] (H-KAVDEAVAAIEKS-OH; N-terminus and C-terminus assumed)	YES
CSCC[C@H](NC(=O)[C@@H]1CCCN1C(=O)[C@H](CC(=O)O)NC(=O)[C@H](Cc1ccccc1)NC(=O)[C@@H](NC(=O)[C@@H](N)CCC(=O)O)[C@@H](C)O)C(=O)N[C@@H](CCCCN)C(=O)N[C@H](C(=O)N1CCC[C@H]1C(=O)N[C@@H](CC(=O)O)C(=O)N[C@@H](Cc1c[nH]cn1)C(=O)N[C@@H](CO)C(=O)N[C@@H](CC(=O)O)C(=O)N[C@@H](CCCCN)C(=O)O)C(C)C [HDM29A] (H-ETFDPMKVPDHSDK-OH; N-terminus and C-terminus assumed)	YES
CSCC[C@H](NC(=O)[C@@H]1CCCN1C(=O)[C@H](CC(=O)O)NC(=O)[C@H](Cc1ccccc1)NC(=O)[C@@H](NC(=O)[C@H](CCC(=O)O)NC(=O)[C@H](CO)NC(=O)[C@@H](N)CCCCN)[C@@H](C)O)C(=O)N[C@@H](CCCCN)C(=O)N[C@H](C(=O)N1CCC[C@H]1C(=O)N[C@@H](CC(=O)O)C(=O)N[C@@H](Cc1c[nH]cn1)C(=O)N[C@@H](CO)C(=O)N[C@@H](CC(=O)O)C(=O)O)C(C)C [HDM29B] (H-KSETFDPMKVPDHSD-OH; N-terminus and C-terminus assumed)	YES
CSCC[C@H](NC(=O)[C@@H]1CCCN1C(=O)[C@H](CC(=O)O)NC(=O)[C@H](Cc1ccccc1)NC(=O)[C@@H](NC(=O)[C@@H](N)CCC(=O)O)[C@@H](C)O)C(=O)N[C@@H](CCCCN)C(=O)N[C@H](C(=O)N1CCC[C@H]1C(=O)N[C@@H](CC(=O)O)C(=O)N[C@@H](Cc1c[nH]cn1)C(=O)N[C@@H](CO)C(=O)N[C@@H](CC(=O)O)C(=O)O)C(C)C [HDM29] (H-ETFDPMKVPDHSD-OH; N-terminus and C-terminus assumed)	YES
CC[C@H](C)[C@H](NC(=O)CNC(=O)[C@@H](NC(=O)[C@H](Cc1c[nH]cn1)NC(=O)[C@H](CCCNC(=N)N)NC(=O)[C@H](CCC(=O)O)NC(=O)[C@H](Cc1ccccc1)NC(=O)[C@H](CCCCN)NC(=O)[C@@H](N)CC(=O)O)[C@@H](C)CC)C(=O)N[C@H](C(=O)N[C@@H](CC(=O)O)C(=O)N[C@@H](CC(C)C)C(=O)N[C@@H](CCCCN)C(=O)O)[C@@H](C)CC [HDM30] (H-DKFERHIGIIDLK-OH; N-terminus and C-terminus assumed)	YES
CC[C@H](C)[C@H](NC(=O)CNC(=O)[C@@H](NC(=O)[C@@H](N)Cc1c[nH]cn1)[C@@H](C)CC)C(=O)N[C@H](C(=O)N[C@@H](CC(=O)O)C(=O)N[C@@H](CC(C)C)C(=O)N[C@@H](CCCCN)C(=O)NCC(=O)N[C@@H](CCC(=O)O)C(=O)N[C@@H](CC(C)C)C(=O)N[C@@H](CC(=O)O)C(=O)N[C@@H](CCSC)C(=O)N[C@@H](CCCNC(=N)N)C(=O)N[C@@H](CC(N)=O)C(=O)O)[C@@H](C)CC [HDM31A] (H-HIGIIDLKGELDMRN-OH; N-terminus and C-terminus assumed)	YES
CC[C@H](C)[C@H](N)C(=O)N[C@@H](CC(=O)O)C(=O)N[C@@H](CC(C)C)C(=O)N[C@@H](CCCCN)C(=O)NCC(=O)N[C@@H](CCC(=O)O)C(=O)N[C@@H](CC(C)C)C(=O)N[C@@H](CC(=O)O)C(=O)N[C@@H](CCSC)C(=O)N[C@@H](CCCNC(=N)N)C(=O)N[C@@H](CC(N)=O)C(=O)N[C@H](C(=O)N[C@@H](CCC(N)=O)C(=O)N[C@H](C(=O)N[C@@H](CCCNC(=N)N)C(=O)O)C(C)C)[C@@H](C)CC [HDM32A] (H-IDLKGELDMRNIQVR-OH; N-terminus and C-terminus assumed)	YES
CC[C@H](C)[C@H](N)C(=O)N[C@@H](CC(=O)O)C(=O)N[C@@H](CC(C)C)C(=O)N[C@@H](CCCCN)C(=O)NCC(=O)N[C@@H](CCC(=O)O)C(=O)N[C@@H](CC(C)C)C(=O)N[C@@H](CC(=O)O)C(=O)N[C@@H](CCSC)C(=O)N[C@@H](CCCNC(=N)N)C(=O)N[C@@H](CC(N)=O)C(=O)N[C@H](C(=O)N[C@@H](CCC(N)=O)C(=O)O)[C@@H](C)CC [HDM32] (H-IDLKGELDMRNIQ-OH; N-terminus and C-terminus assumed)	YES
CC[C@H](C)[C@H](NC(=O)[C@H](CC(N)=O)NC(=O)[C@H](CCCNC(=N)N)NC(=O)[C@H](CCSC)NC(=O)[C@H](CC(=O)O)NC(=O)[C@@H](N)CC(C)C)C(=O)N[C@@H](CCC(N)=O)C(=O)N[C@H](C(=O)N[C@@H](CCCNC(=N)N)C(=O)NCC(=O)N[C@@H](CC(C)C)C(=O)N[C@@H](CCCCN)C(=O)N[C@@H](CCC(N)=O)C(=O)O)C(C)C [HDM33] (H-LDMRNIQVRGLKQ-OH; N-terminus and C-terminus assumed)	YES
CC[C@H](C)[C@H](NC(=O)[C@H](CC(N)=O)NC(=O)[C@@H](N)CCCNC(=N)N)C(=O)N[C@@H](CCC(N)=O)C(=O)N[C@H](C(=O)N[C@@H](CCCNC(=N)N)C(=O)NCC(=O)N[C@@H](CC(C)C)C(=O)N[C@@H](CCCCN)C(=O)N[C@@H](CCC(N)=O)C(=O)N[C@@H](CCSC)C(=O)N[C@@H](CCCCN)C(=O)N[C@@H](CCCNC(=N)N)C(=O)N[C@H](C(=O)NCC(=O)O)C(C)C)C(C)C [HDM34] (H-RNIQVRGLKQMKRVG-OH; N-terminus and C-terminus assumed)	YES
CSCC[C@H](NC(=O)[C@H](CCC(N)=O)NC(=O)[C@H](CCCCN)NC(=O)[C@H](CC(C)C)NC(=O)CNC(=O)[C@@H](N)CCCNC(=N)N)C(=O)N[C@@H](CCCCN)C(=O)N[C@@H](CCCNC(=N)N)C(=O)N[C@H](C(=O)NCC(=O)N[C@@H](CC(=O)O)C(=O)N[C@@H](C)C(=O)N[C@@H](CC(N)=O)C(=O)O)C(C)C [HDM35] (H-RGLKQMKRVGDAN-OH; N-terminus and C-terminus assumed)	YES
CC(C)[C@H](NC(=O)[C@H](CCCNC(=N)N)NC(=O)[C@@H](N)CCCCN)C(=O)NCC(=O)N[C@@H](CC(=O)O)C(=O)N[C@@H](C)C(=O)N[C@@H](CC(N)=O)C(=O)N[C@H](C(=O)N[C@@H](CCCCN)C(=O)N[C@@H](CO)C(=O)N[C@@H](CCC(=O)O)C(=O)N[C@@H](CC(=O)O)C(=O)NCC(=O)O)C(C)C [HDM36] (H-KRVGDANVKSEDG-OH; N-terminus and C-terminus assumed)	YES
CC(C)[C@H](NC(=O)CNC(=O)[C@H](CC(=O)O)NC(=O)[C@H](CCC(=O)O)NC(=O)[C@H](CO)NC(=O)[C@H](CCCCN)NC(=O)[C@@H](NC(=O)[C@H](CC(N)=O)NC(=O)[C@H](C)N)C(C)C)C(=O)N[C@H](C(=O)N[C@@H](CCCCN)C(=O)N[C@@H](C)C(=O)N[C@@H](Cc1c[nH]cn1)C(=O)O)C(C)C [HDM37] (H-ANVKSEDGVVKAH-OH; N-terminus and C-terminus assumed)	YES
CC[C@H](C)[C@H](NC(=O)[C@H](C)NC(=O)[C@@H](N)[C@@H](C)O)C(=O)N[C@@H](Cc1ccccc1)C(=O)N[C@@H](CCC(N)=O)C(=O)N[C@@H](CC(=O)O)C(=O)N[C@H](C(=O)N[C@H](C(=O)N[C@@H](CCCNC(=N)N)C(=O)N[C@@H](C)C(=O)N[C@@H](CCC(=O)O)C(=O)N[C@@H](CCSC)C(=O)N[C@H](C(=O)N[C@@H](CCCCN)C(=O)O)[C@@H](C)O)C(C)C)[C@@H](C)O [HDM48] (H-TAIFQDTVRAEMTK-OH; N-terminus and C-terminus assumed)	YES
